From patent publication US11771692B2, “N-hydroxyethyl didehydroazapodophyllotoxins as GBP1 inhibitors and methods of overcoming treatment resistance in cancer” (The Board of Trustees of the Leland Stanford Junior …, priority 2018, dated 2023)

Key:
GBP1 = assay: cell-based reporter assay, OVCAR-8 stably transfected with GBP-1-luciferase; conditions: OVCAR-8 GBP-1-luciferase
Excerpt: Exemplary compounds (1)-(17) and previously identified compound SU093 (Andreoli, M., Persico, M.; Kumar, A.; Orteca, N.; Kumar, V.; Pepe, A.; Mahalingam, S.; Alegria, A. E.; Petrella, L.; Sevciunaite, L.; Camperchioli, A.; Mariani, M.; Di Dato, A.; Novellino, E.; Scambia, G., Malhotra, S. V.; Ferlini, C.; Fattorusso, C., Identification of the First Inhibitor of the GBP1:PIM1 Interaction. Implications for the Development of a New Class of Anticancer Agents against Paclitaxel Resistant Cancer Cells. Journal of Medicinal Chemistry 2014, 57 (19), 7916-7932) were tested for GBP1 inhibition using a cell-based reporter assay in ovarian cancer cell line OVCAR-8 stably transfected with GBP-1-luciferase. Tables 1 and 2 below outlines the percentage of GBP1 expression in OVCAR-8 cells for each of the 17 compounds tested.

ID-8 tumor xenograft = assay: Ovarian ID-8 tumor xenograft in C57BL6 mice; format: in vivo; conditions: ID-8, 20 mg/kg IP daily
Excerpt: An immunocompetent syngeneic mouse model was used to evaluate in vivo antitumor effect of SU093 and SU056 (also referred to herein as Compound (I)) for ovarian cancer. C57BL6 female mice (n=5/group) were subcutaneously injected in the right flank with 5×10^6 ID-8 cells mixed with matrigel. From the day following xenograft implantation, mice were monitored regularly for tumor growth and once the tumors reached approximately 100 mm^3, the mice were randomly divided into three groups and respective treatments were given.
Group I (vehicle control): 100 μl of 10% PEG300 (w/v) in saline;
Group II: mice treated with SU093 (20 mg/kg); and
Group III: mice treated with SU056 (20 mg/kg).
Doses were administered intraperitoneally (IP) for 7 days/week for 42 days and the mice were sacrificed on day 43. Tumor sizes were measured twice weekly using digital caliper and tumor volume was calculated by the formula: 0.5236 L1 (L2)^2, where L1 is long diameter, and L2 is short diameter.

SCC-90 tumor xenograft = assay: Head and neck SCC-90 tumor xenograft in nude mice; format: in vivo; conditions: SCC-90, nude mice
Protocol: An immunodeficient nude mice model was also used to study the in vivo potential of SU093 and SU056 for head and neck cancer. Nude mice (n=3/group) were subcutaneously injected in the right flank with 5×10^6 SCC-90 cells mixed with matrigel and observed regularly until the tumor size reached about 200 mm^3. The treatment regime with drugs including dose, formulation and route of delivery was similar to ovarian cancer study discussed above. Doses of SU093 and SU056 were administered daily until 35 days and mice were sacrificed thereafter. […] At the end of 35 days, calculated tumor volume/mouse was 860.33±21.78 mm^3, 694.67±14.64 mm^3, and 435.00±10.81 mm^3 for control, SU093 and SU056 treatment groups, respectively. This equates to a 20% and 50% reduction in tumor volume for SU093 and SU056 treatment groups, respectively. A decrease in tumor weight of about 21% (P value not significant) and 54% (P<0.002) was also observed for the SU093 and SU56 treatment groups, respectively.

**Q.** With `O=C1OCC2=C1C(c1cccc(F)c1)c1cc3c(cc1N2CCO)OCO3` (centres unmarked) [SU056] as the molecule, how does the “% GBP1 expression OVCAR-8 @5 nM” value (GBP1; 5 nM) read?
**A.** 54.16%

**Q.** And the “% GBP1 expression OVCAR-8 @10 nM” value (GBP1; 10 nM)?
**A.** 43.36%

**Q.** What about the “reduction in tumor volume” value (ID-8 tumor xenograft; 42 days, vs control) of the same molecule?
**A.** 49.55%

**Q.** And the tumor weight decreased (ID-8 tumor xenograft; 42 days, vs control)?
**A.** 53.44%

**Q.** And the tumor volume/mouse (ID-8 tumor xenograft; end of 6 weeks)?
**A.** 257.39±21.6 mm^3

**Q.** And the tumor volume/mouse (SCC-90 tumor xenograft; 20 mg/kg IP daily, end of 35 days)?
**A.** 435.00±10.81 mm^3

**Q.** And the “decrease in tumor weight” value (SCC-90 tumor xenograft; 35 days, vs control)?
**A.** ~54%

**Q.** And the “reduction in tumor volume” value (SCC-90 tumor xenograft; 35 days, vs control)?
**A.** 50%
